Experimental findings from ChEMBL document CHEMBL6092203, “Discovery of Novel PROTAC-Based HPK1 Degraders with High Potency and Selectivity for Cancer Immunotherapy” (J Med Chem, 2024) are described below.

The target of series [1] is T1, Mitogen-activated protein kinase kinase kinase kinase 3 (Homo sapiens, UniProt Q8IVH8).
T1 sequence (Q8IVH8 whole entry): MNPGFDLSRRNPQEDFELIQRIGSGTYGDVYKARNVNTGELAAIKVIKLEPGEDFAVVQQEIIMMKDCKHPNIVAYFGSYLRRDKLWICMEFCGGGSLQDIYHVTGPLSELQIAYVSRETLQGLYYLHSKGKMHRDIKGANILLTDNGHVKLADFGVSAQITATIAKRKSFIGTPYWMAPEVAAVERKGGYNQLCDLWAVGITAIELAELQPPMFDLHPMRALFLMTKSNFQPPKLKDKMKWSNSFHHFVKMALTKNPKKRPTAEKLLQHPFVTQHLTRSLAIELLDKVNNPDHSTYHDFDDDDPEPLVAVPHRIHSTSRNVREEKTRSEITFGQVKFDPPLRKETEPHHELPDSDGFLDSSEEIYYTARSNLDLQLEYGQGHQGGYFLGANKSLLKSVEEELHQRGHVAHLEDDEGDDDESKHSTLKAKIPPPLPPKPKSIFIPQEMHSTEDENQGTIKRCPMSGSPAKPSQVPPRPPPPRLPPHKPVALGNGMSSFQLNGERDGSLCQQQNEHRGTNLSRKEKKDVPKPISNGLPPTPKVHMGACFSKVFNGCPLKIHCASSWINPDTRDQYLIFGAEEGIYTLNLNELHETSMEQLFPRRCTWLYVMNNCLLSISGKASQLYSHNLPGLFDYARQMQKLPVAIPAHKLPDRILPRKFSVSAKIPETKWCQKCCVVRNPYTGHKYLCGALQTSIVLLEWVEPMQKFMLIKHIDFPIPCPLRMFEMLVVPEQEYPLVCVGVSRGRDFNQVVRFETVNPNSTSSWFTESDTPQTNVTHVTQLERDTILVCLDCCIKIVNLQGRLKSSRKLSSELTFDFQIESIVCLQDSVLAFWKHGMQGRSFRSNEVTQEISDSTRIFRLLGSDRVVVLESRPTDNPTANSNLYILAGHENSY
Briefly: Inhibition of GLK (unknown origin).

In series [2] the target is Mitogen-activated protein kinase kinase kinase kinase 1 (Homo sapiens, UniProt Q92918). In words: Inhibition of HPK1 (unknown origin).
Series [3] addresses T2, Protein cereblon/Mitogen-activated protein kinase kinase kinase kinase 1 (Homo sapiens, UniProt Q92918+Q96SW2). Briefly: PROTAC activity at CRBN/HPK1 in human Jurkat cells incubated for 24 hrs by Western blotting analysis. Format: cell-based. A general note: A western blot detects proteins with antibodies after separation by electrophoresis.
Target sequence in this assay (Q92918 whole entry): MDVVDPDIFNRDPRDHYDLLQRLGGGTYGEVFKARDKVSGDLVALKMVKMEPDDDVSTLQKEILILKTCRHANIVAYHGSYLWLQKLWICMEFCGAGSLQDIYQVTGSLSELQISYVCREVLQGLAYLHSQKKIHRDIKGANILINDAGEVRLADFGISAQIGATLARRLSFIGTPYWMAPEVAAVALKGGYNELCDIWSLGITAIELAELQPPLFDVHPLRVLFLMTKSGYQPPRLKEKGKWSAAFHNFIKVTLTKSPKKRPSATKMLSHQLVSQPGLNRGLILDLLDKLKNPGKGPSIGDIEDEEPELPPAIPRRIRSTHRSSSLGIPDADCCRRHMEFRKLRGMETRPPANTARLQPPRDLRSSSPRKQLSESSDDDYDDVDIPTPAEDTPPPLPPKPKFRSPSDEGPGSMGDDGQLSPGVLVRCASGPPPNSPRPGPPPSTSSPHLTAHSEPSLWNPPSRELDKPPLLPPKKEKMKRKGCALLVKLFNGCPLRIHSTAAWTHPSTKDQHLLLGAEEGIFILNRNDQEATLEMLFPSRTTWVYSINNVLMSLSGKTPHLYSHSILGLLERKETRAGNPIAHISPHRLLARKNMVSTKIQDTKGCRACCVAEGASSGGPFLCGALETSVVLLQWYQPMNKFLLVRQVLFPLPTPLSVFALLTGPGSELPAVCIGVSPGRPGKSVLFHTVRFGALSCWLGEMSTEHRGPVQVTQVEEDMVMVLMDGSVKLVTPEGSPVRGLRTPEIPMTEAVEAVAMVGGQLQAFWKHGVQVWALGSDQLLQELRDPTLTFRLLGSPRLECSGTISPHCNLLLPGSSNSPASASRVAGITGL
Target sequence in this assay (Q96SW2 whole entry): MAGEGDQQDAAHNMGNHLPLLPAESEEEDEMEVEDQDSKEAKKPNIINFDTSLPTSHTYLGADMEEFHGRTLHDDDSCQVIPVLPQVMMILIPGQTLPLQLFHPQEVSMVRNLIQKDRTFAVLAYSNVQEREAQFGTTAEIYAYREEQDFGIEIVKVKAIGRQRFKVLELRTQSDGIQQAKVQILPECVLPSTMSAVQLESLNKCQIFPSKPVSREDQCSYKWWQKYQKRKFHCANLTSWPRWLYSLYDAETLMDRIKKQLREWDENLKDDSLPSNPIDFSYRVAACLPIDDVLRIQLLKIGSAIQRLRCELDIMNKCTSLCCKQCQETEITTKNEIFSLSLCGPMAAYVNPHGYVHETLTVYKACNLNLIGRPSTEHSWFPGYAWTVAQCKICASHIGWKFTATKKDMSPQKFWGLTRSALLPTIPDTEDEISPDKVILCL
In series [4] the target is T2, Protein cereblon/Mitogen-activated protein kinase kinase kinase kinase 1. In words: PROTAC activity at CRBN/HPK1 in human Jurkat cells assessed as maximum degradation incubated for 24 hrs by Western blotting analysis. It counts as cell-based.
Target sequence in this assay (Q92918 whole entry, looked up): as the sequence (Q92918 whole entry) above
Target sequence in this assay (Q96SW2 whole entry, looked up): as the sequence (Q96SW2 whole entry) above
Series [5] is described as follows: AUC in mouse at 10 mg/kg, po measured upto 24 hrs by LC-MS analysis. Format: ADME, organism-based. As to conditions: in vivo.
Series [6] in a line: Oral bioavailability in mouse at 10 mg/kg measured upto 24 hrs by LC-MS analysis. The settings on record: in vivo. It counts as ADME, organism-based.
Series [7] is described as follows: Clearance in mouse at 2 mg/kg, iv measured upto 24 hrs by LC-MS analysis. Format: ADME, organism-based. As to conditions: in vivo.
Series [8] is described as follows: Half-life in mouse at 10 mg/kg measured upto 24 hrs by LC-MS analysis. As to conditions: in vivo. Format: ADME, organism-based.
Series [9] in a line: Apparent volume of distribution in mouse at 2 mg/kg, iv measured upto 24 hrs by LC-MS analysis. As to conditions: in vivo. Format: ADME, organism-based.
A short description of series [10]: Half-life in mouse at 2 mg/kg, iv measured upto 24 hrs by LC-MS analysis. As to conditions: in vivo. It counts as ADME, organism-based.
A short description of series [11]: Cmax in mouse at 10 mg/kg, po measured upto 24 hrs by LC-MS analysis. The settings on record: in vivo. It counts as ADME, organism-based.
The nature of series [12]: AUC in mouse at 2 mg/kg, iv measured upto 24 hrs by LC-MS analysis. Format: ADME, organism-based. As to conditions: in vivo.

Sequence of Mitogen-activated protein kinase kinase kinase kinase 1 (Q92918 whole entry): as the sequence (Q92918 whole entry) above

`CCN1CCC(n2cc(-c3c[nH]c4ncc(-c5cnc(OCC6CCOCC6)c(F)c5)nc34)cn2)CC1`: the IC50 in series [1] was found to be 63.6 nM; in series [2] it was 2.67 nM.
Consider `O=C1CCN(c2cc(C(=O)N3CCC(CC4CCN(c5ccc(-c6cnc7[nH]cc(-c8cnn(CC9CC9)c8)c7n6)cn5)CC4)CC3)ccc2Cl)C(=O)N1`, for which, in series [3], the DC50 was 632 nM. Also, in series [4], the maximal effect (Emax) amounted to 52%.
For `CCN1CCC(n2cc(-c3c[nH]c4ncc(-c5ccc(N6CCC(CN7CCN(C(=O)c8ccc(Cl)c(N9CCC(=O)NC9=O)c8)CC7)CC6)nc5)nc34)cn2)CC1`, in that order: 2.1 nM and 77%.
For `CCN1CCC(n2cc(-c3c[nH]c4ncc(-c5ccc(N6CCC(OC7CCN(C(=O)c8ccc(Cl)c(N9CCC(=O)NC9=O)c8)CC7)CC6)c(F)c5)nc34)cn2)CC1`, in that order: 7.2 nM and 78%.
The like results for `O=C1CCN(c2cc(C(=O)N3CCC(CC4CCN(c5ccc(-c6cnc7[nH]cc(-c8cnn(CCO)c8)c7n6)cn5)CC4)CC3)ccc2Cl)C(=O)N1` were, in that order, 29 nM and 84%.
In the case of `CCN1CCC(n2cc(-c3c[nH]c4ncc(-c5ccc(N6CCC(CC7CCN(C(=O)c8ccc(Cl)c(N9CCC(=O)NC9=O)c8)CC7C)CC6)cc5)nc34)cn2)CC1` (stereo not given), the DC50 in series [3] was found to be 23.5 nM. Moreover, the Emax in series [4] is 66%.
The like results for `CCN1CCC(n2cc(-c3c[nH]c4ncc(-c5ccc(N6CCC(OC7CCN(C(=O)c8ccc(Cl)c(N9CCC(=O)NC9=O)c8)CC7)CC6)c(C)c5)nc34)cn2)CC1` were, in that order, 29.3 nM and 73%.
The like results for `CC(C)(C#N)n1cc(-c2c[nH]c3ncc(-c4ccc(N5CCC(CC6CCN(C(=O)c7ccc(Cl)c(N8CCC(=O)NC8=O)c7)CC6)CC5)nc4)nc23)cn1` were, in that order, 214 nM and 64%.
For `CCN1CCC(n2cc(-c3c[nH]c4ncc(-c5ccc(N6CCC(CC7CCN(C(=O)c8ccc(Cl)c(N9CCC(=O)NC9=O)c8)CC7)CC6)c(F)c5)nc34)cn2)CC1`, in that order: 176 nM and 63%.
For `O=C1CCN(c2cc(C(=O)N3CCC(CC4CCN(c5ccc(-c6cnc7[nH]cc(-c8cnn(CCF)c8)c7n6)cn5)CC4)CC3)ccc2Cl)C(=O)N1`, the values for the AUC at 24 h in series [5] and in [12] were 9200 ng·h/mL and 7400 ng·h/mL, respectively. In addition, the DC50 in series [3] was found to be 5.3 nM. The same compound gave a bioavailability in series [6] of 25.1%. Moreover, the clearance in [7] is 4.5 mL/min/kg. The half-life in [8] was 3.18 h; in series [10] it was 2.35 h. Besides, the Vz in [9] was determined as 0.917 L/kg. The highest level in series [11] (Cmax) was 4680 ng/mL. Further, the Emax in series [4] came out at 78%.
In [3], `CCn1cc(-c2c[nH]c3ncc(-c4ccc(N5CCC(CC6CCN(C(=O)c7ccc(Cl)c(N8CCC(=O)NC8=O)c7)CC6)CC5)nc4)nc23)cn1` registered a DC50 of 29.2 nM. For the same compound, the maximum response (Emax) in series [4] amounted to 87%.
In series [3], `O=C1CCN(c2cc(C(=O)N3CCC(CC4CCN(c5ccc(-c6cnc7[nH]cc(-c8cnn([C@@H]9CCOC9)c8)c7n6)cn5)CC4)CC3)ccc2Cl)C(=O)N1` displayed a DC50 of 83 nM. Moreover, the Emax in [4] amounted to 84%.
Turning to `Cn1cc(-c2c[nH]c3ncc(-c4ccc(N5CCC(CC6CCN(C(=O)c7ccc(Cl)c(N8CCC(=O)NC8=O)c7)CC6)CC5)nc4)nc23)cn1`, the exposure (AUC) at 24 h stood at 2210 ng·h/mL in series [5] and 4030 ng·h/mL in [12]. In series [3], the DC50 was determined as 9.3 nM. The compound further displayed a bioavailability in [6] of 17.7%. In [7], this compound showed a clearance of 8.27 mL/min/kg. For the same compound, the half-life in [8] is 3.35 h; in series [10] it was 0.98 h. Further, the Vz in [9] stood at 0.701 L/kg. This compound yielded a Cmax in series [11] of 840 ng/mL. For the same compound, the Emax came out at 93% in [4] and 89% in series [4] (tested as the 2H-labelled form).
With `O=C1CCN(c2cc(C(=O)N3CCC(CC4CCN(c5ccc(-c6cnc7[nH]cc(-c8cnn(C9CC9)c8)c7n6)cn5)CC4)CC3)ccc2Cl)C(=O)N1`, the DC50 in [3] came to 52.3 nM. Besides, the maximum response (Emax) in series [4] worked out at 87%.
The like results for `CCN1CCC(n2cc(-c3c[nH]c4ncc(-c5cnc(OCCNC(=O)c6ccc(Cl)c(N7CCC(=O)NC7=O)c6)c(C)c5)nc34)cn2)CC1` were, in that order, 55 nM and 86%.
`CCN1CCC(n2cc(-c3c[nH]c4ncc(-c5ccc(N6CCC(CC7CCN(C(=O)c8ccc(Cl)c(N9CCC(=O)NC9=O)c8)CC7)CC6)nc5)nc34)cn2)CC1`: the AUC at 24 h in series [5] is 295 ng·h/mL; in [12] it was 874 ng·h/mL. The compound also had a DC50 in series [3] of 1.2 nM. Also, the bioavailability in series [6] is 6.67%. Further, the clearance in [7] is 27.5 mL/min/kg. Also, the Vz in series [9] turned out to be 1.03 L/kg. The compound further showed a half-life in [10] of 4.63 h. This compound also yielded a Cmax in series [11] of 81.6 ng/mL. The Emax in series [4] came out at 93%.
Compound `CCN1CCC(n2cc(-c3c[nH]c4ncc(-c5ccc(N6CCC(OC7CCN(C(=O)c8ccc(Cl)c(N9CCC(=O)NC9=O)c8)CC7)CC6)cc5)nc34)cn2)CC1` displayed a DC50 in [3] of 386 nM. Further, in series [4], the maximum response (Emax) was 52%.
The like results for `COCCn1cc(-c2c[nH]c3ncc(-c4ccc(N5CCC(CC6CCN(C(=O)c7ccc(Cl)c(N8CCC(=O)NC8=O)c7)CC6)CC5)nc4)nc23)cn1` were, in that order, 30.6 nM and 76%.
For `CCN1CCC(n2cc(-c3c[nH]c4ncc(-c5ccc(N6CCC(CC7CCN(C(=O)c8ccc(C)c(N9CCC(=O)NC9=O)c8)CC7)CC6)cc5)nc34)cn2)CC1`, in that order: 616 nM and 53%.
For `CCN1CCC(n2cc(-c3c[nH]c4ncc(-c5ccc(N6CCC(C)(CN7CCN(C(=O)c8ccc(Cl)c(N9CCC(=O)NC9=O)c8)CC7)CC6)cc5)nc34)cn2)CC1`, in that order: 52.4 nM and 81%.
With `CCN1CCC(n2cc(-c3c[nH]c4ncc(-c5ccc(N6CCC(F)(CN7CCN(C(=O)c8ccc(Cl)c(N9CCC(=O)NC9=O)c8)CC7)CC6)cc5)nc34)cn2)CC1`, the DC50 in [3] is 230 nM. In series [4], the maximum response (Emax) worked out at 58%.
For `O=C1CCN(c2cc(C(=O)N3CCC(CC4CCN(c5ccc(-c6cnc7[nH]cc(-c8cn[nH]c8)c7n6)cn5)CC4)CC3)ccc2Cl)C(=O)N1`, in that order: 32.9 nM and 92%.
On to `CCN1CCC(n2cc(-c3c[nH]c4ncc(-c5ccc(N6CCC(CC7CCCN(C(=O)c8ccc(Cl)c(N9CCC(=O)NC9=O)c8)CC7)CC6)nc5)nc34)cn2)CC1` (stereo not given), for which the DC50 in [3] was 385 nM. In series [4], the Emax worked out at 56%.
For `O=C1CCN(c2cc(C(=O)N3CCC(CC4CCN(c5ccc(-c6cnc7[nH]cc(-c8cnn(C(F)F)c8)c7n6)cn5)CC4)CC3)ccc2Cl)C(=O)N1`, in that order: 23.9 nM and 67%.
For the compound `[2H]C([2H])([2H])n1cc(-c2c[nH]c3ncc(-c4ccc(N5CCC(CC6CCN(C(=O)c7ccc(Cl)c(N8CCC(=O)NC8=O)c7)CC6)CC5)nc4)nc23)cn1`, the DC50 in [3] worked out at 12.7 nM.
With `O=C1CCN(c2cc(C(=O)N3CCC(CC4CCN(c5ccc(-c6cnc7[nH]cc(-c8cnn(CC(F)F)c8)c7n6)cn5)CC4)CC3)ccc2Cl)C(=O)N1`, the DC50 in series [3] came out at 18.7 nM. Besides, the Emax in series [4] was found to be 81%.

The IC50 is the midpoint of a concentration-inhibition curve. For orientation: Emax means the maximal effect, on the per cent scale that the assay sets. Usually AUC stands for the area under the concentration-time curve, a measure of exposure. A higher AUC goes with more exposure. For orientation: bioavailability means dose-corrected exposure relative to a reference, in per cent. For orientation: clearance means a measure of how efficiently the substance is removed, as volume per time. A lower clearance goes with inefficient removal. As a reminder, the half-life is how long it takes for the measured level to halve. The low end stands for fast loss, the high end for slow loss. Broadly, the Cmax is the highest concentration seen after dosing.
